Earlier results, collected in article PMC3758109 (ChemistryOpen, 2012).

Details: humans, intravenous bolus injection

Substance: inulin
- fraction cleared in fast phase: 76%
- fraction cleared in slow phase: 24%
- half-life of fast phase: 10 min
- half-life of slow phase: 86 min
